Active and inactive are the calls of the source. The rule behind the calls is not given here.
Tests used:
[1] = tested on: Staphylococcus aureus; test: Inhibition of virulence production in Staphylococcus aureus CECT 976 biofilms assessed as diameter of protease halo at 1/2XMTC measured after 72 hrs in presence of 1/2XMIC tobramycin (reference value: 12.5 to 13.3 mm); type: functional
[2] = tested on: Staphylococcus aureus; test: Inhibition of virulence production in pre-established 24 hr-old Staphylococcus aureus CECT 976 biofilms assessed as diameter of gelatinases halo at 10XMTC measured after 48 hrs in presence of 1XMIC tobramycin (reference value: 9.5 to 10 mm); type: functional
[3] = tested on: Staphylococcus aureus; test: Inhibition of virulence production in pre-established 24 hr-old Staphylococcus aureus CECT 976 biofilms assessed as diameter of protease halo at 10XMTC measured after 72 hrs (reference value: 12.5 to 13.3 mm); type: functional
[4] = tested on: Pseudomonas aeruginosa; test: Antibiotic adjuvant activity against Pseudomonas aeruginosa ATCC 10145 assessed as potentiation of ciprofloxacin-induced antibacterial activity by measuring fractional inhibitory concentration index (MIC) at 15.6 ug/ml measured after 24 hrs by checkerboard assay; type: functional; conditions: dose 15.6 µg/ml
[5] = tested on: Staphylococcus aureus; test: Antibacterial activity against Staphylococcus aureus CECT 976 assessed as inhibition of bacterial growth incubated for 24 hrs by broth microdilution method; type: functional
[6] = tested on: Staphylococcus aureus; test: Inhibition of virulence production in Staphylococcus aureus CECT 976 biofilms assessed as diameter of gelatinases halo at 1/2XMTC measured after 48 hrs in presence of 1/8XMIC tobramycin (reference value: 11.3 to 12 mm); type: functional
[7] = tested on: Staphylococcus aureus; test: Antibiotic adjuvant activity against preestablished 24 hr-old Staphylococcus aureus CECT 976 assessed as potentiation of tobramycin-induced antibiofilm activity by measuring reduction of metabolic activity of biofilm cells at 10000 ug/ml in presence of 1/4XMIC tobramycin by resazurin staining based fluorescence analysis (reference value: 37%); type: functional
[8] = tested on: Pseudomonas aeruginosa; test: Antibiofilm activity against preestablished 24 hr-old Pseudomonas aeruginosa ATCC 10145 assessed as biomass removal at 1000 to 10000 ug/ml measured after 24 hrs by crystal violet staining method; type: functional; conditions: dose 1000-10000 µg/ml, at 1000 to 10000 µg/mL
[9] = tested on: Staphylococcus aureus; test: Inhibition of virulence production in Staphylococcus aureus CECT 976 biofilms assessed as diameter of protease halo at 1/2XMTC measured after 72 hrs in presence of 1/8XMIC tobramycin (reference value: 12.5 to 13.3 mm); type: functional
[10] = tested on: Staphylococcus aureus; test: Antibacterial activity against Staphylococcus aureus CECT 976 assessed as inhibition of bacterial growth by measuring inhibition zone diameter at 1000 ug/ml incubated for 24 hrs in presence of tobramycin by disc diffusion method (reference value: 12.5 +/- 1.29 mm); type: functional; conditions: read-out: DIZ
[11] = tested on: Staphylococcus aureus; test: Inhibition of virulence production in Staphylococcus aureus CECT 976 biofilms assessed as diameter of gelatinases halo at 1XMTC measured after 48 hrs (reference value: 11.5 to 11.8 mm); type: functional
[12] = Metal chelating activity at iron(III) in chrome azurol sulphonate solution at 1000 ug/ml incubated for 30 mins by spectrophotometric analysis; conditions: dose 1000.0 µg/ml
[13] = tested on: Staphylococcus aureus; test: Inhibition of virulence production in pre-established 24 hr-old Staphylococcus aureus CECT 976 biofilms assessed as diameter of siderophores halo at 10XMTC measured after 48 hrs in presence of 1/4XMIC tobramycin (reference value: 11.5 +/-0.6 mm); type: functional
[14] = tested on: Staphylococcus aureus; test: Inhibition of virulence production in pre-established 24 hr-old Staphylococcus aureus CECT 976 biofilms assessed as diameter of siderophores halo at 10XMTC measured after 48 hrs (reference value: 11.5 to 11.8 mm); type: functional
[15] = tested on: Pseudomonas aeruginosa; test: Antibacterial activity against Pseudomonas aeruginosa ATCC 10145 assessed as inhibition of bacterial growth by measuring inhibition zone diameter at 100 ug/ml incubated for 24 hrs in presence of ciprofloxacin by disc diffusion method (reference value: 24.25 +/-0.5 mm); type: functional; conditions: read-out: DIZ
[16] = tested on: Staphylococcus aureus; test: Inhibition of virulence production in Staphylococcus aureus CECT 976 biofilms assessed as diameter of siderophores halo at 1/2XMTC measured after 48 hrs (reference value: 12 mm); type: functional
[17] = tested on: Pseudomonas aeruginosa; test: Antibiotic adjuvant activity against preestablished 24-hr old Pseudomonas aeruginosa ATCC 10145 assessed as potentiation of ciprofloxacin-induced antibiofilm activity by measuring reduction in metabolic activity of biofilm cells at 1000 ug/ml in presence of 1/8XMIC ciprofloxacin by resazurin staining based fluorescence analysis; type: functional, organism-based; conditions: dose 1000.0 µg/ml
[18] = tested on: Staphylococcus aureus; test: Antibacterial activity against Staphylococcus aureus CECT 976 assessed as inhibition of bacterial growth by measuring inhibition zone diameter at 1000 ug/ml incubated for 24 hrs in presence of tetracycline by disc diffusion method (reference value: 24 +/- 1.41 mm); type: functional; conditions: read-out: DIZ
[19] = tested on: Staphylococcus aureus; test: Inhibition of virulence production in Staphylococcus aureus CECT 976 biofilms assessed as diameter of lipases halo at 1XMTC measured after 48 hrs (reference value: 11.8 to 12.5 mm); type: functional
[20] = tested on: Staphylococcus aureus; test: Antibiofilm activity against Staphylococcus aureus CECT 976 assessed as reduction in biofilm cells culturability at 500 to 1000 ug/ml measured after 24 hrs by visual counting method; type: functional, organism-based; conditions: dose 500-1000 µg/ml
[21] = tested on: Staphylococcus aureus; test: Inhibition of virulence production in Staphylococcus aureus CECT 976 biofilms assessed as diameter of protease halo at 1/2XMTC measured after 72 hrs (reference value: 11.8 to 13.3 mm); type: functional
[22] = tested on: Staphylococcus aureus; test: Antibiofilm activity against Staphylococcus aureus CECT 976 assessed as reduction in biomass production at 500 to 1000 ug/ml measured after 24 hrs by crystal violet staining method; type: functional; conditions: dose 500-1000 µg/ml, at 500 to 1000 µg/mL
[23] = tested on: Staphylococcus aureus; test: Antibiotic adjuvant activity against Staphylococcus aureus CECT 976 assessed as potentiation of tobamycin-induced antibacterial activity by measuring tobramycin MBC at 62.5 ug/ml measured after 24 hrs by checkerboard assay (reference value: 4 ug/ml); type: functional; conditions: dose 62.5 µg/ml
[24] = tested on: Staphylococcus aureus; test: Inhibition of virulence production in pre-established 24 hr-old Staphylococcus aureus CECT 976 biofilms assessed as diameter of protease halo at 10XMTC measured after 72 hrs in presence of 1XMIC tobramycin (reference value: 11.5 to 12 mm); type: functional
[25] = tested on: Cell membrane; test: Disruption of membrane integrity in Staphylococcus aureus CECT 976 biofilm assessed as increase in PI uptake at 500 ug/ml measured after 24 hrs in presence of 1/8X to 1/2XMIC tobramycin by flow cytometry; type: subcellular; conditions: dose 500.0 µg/ml
[26] = tested on: Pseudomonas aeruginosa; test: Antibacterial activity against Pseudomonas aeruginosa ATCC 10145 assessed as inhibition of bacterial growth by measuring inhibition zone diameter at 100 ug/ml incubated for 24 hrs in presence of tobramycin by disc diffusion method (reference value: 13.25 +/-0.5 mm); type: functional; conditions: read-out: DIZ
[27] = tested on: Staphylococcus aureus; test: Antibacterial activity against Staphylococcus aureus CECT 976 assessed as inhibition of bacterial growth by measuring inhibition zone diameter at 1000 ug/ml incubated for 24 hrs in presence of ciprofloxacin by disc diffusion method (reference value: 29.25 +/- 0.96 mm); type: functional; conditions: read-out: DIZ
[28] = tested on: HepG2; test: Induction of ROS production in human HepG2 cells assessed as DCF fluorescence at 90 to 1000 ug/ml measured after 24 hrs by DCFH-DA staining based fluorescence analysis; type: toxicity, cell-based; conditions: hepg2, 24 h, at 90 to 1000 µg/mL, dose 90-1000 µg/ml

| Structure (SMILES) | Activity [1] | Activity [2] | Activity [3] | fractional inhibitory concentration index (FICI) [4] | MIC [5] | Activity [6] | inhibition at 10000 µg/mL [7] | inhibition (INH) [8] | Activity [9] | zone of inhibition at 1000 µg/mL [10] | Activity [11] | Activity [12] | Activity [13] | Activity [14] | zone of inhibition at 100 µg/mL [15] | Activity [16] | Activity [17] | zone of inhibition at 1000 µg/mL [18] | Activity [19] | Activity [20] | other results |
| --- | --- | --- | --- | --- | --- | --- | --- | --- | --- | --- | --- | --- | --- | --- | --- | --- | --- | --- | --- | --- | --- |
| Cc1occc(=O)c1O [MALTOL] | 0 mm | 0 mm | 0 mm | 0.5 | > 1000 µg/mL | 0 mm | 80% | 15% | 0 mm | 19 mm | 0 mm | 90% | 10.3 mm | 10 mm | 27.2 mm | 10 mm | inactive | 25.8 mm | 3 mm | inactive | Activity [21]: 0 mm; inhibition (INH) [22]: 26%; MBC [23]: 1 µg/mL; Activity [24]: 0 mm; Activity [25]: inactive; zone of inhibition at 100 µg/mL [26]: 16.2 mm; zone of inhibition at 1000 µg/mL [27]: 33 mm; Activity [28]: ~ 116% |
| O=c1cc(CO)occ1O [KOJIC ACID] | 0 mm | 0 mm | 0 mm | 0.5 | > 1000 µg/mL | 0 mm | 80% | 15% | 0 mm | 13.2 mm | 0 mm | 85% | 10.3 mm | 9.3 mm | 30.2 mm | 10 mm | inactive | 27.2 mm | 3.3 mm | inactive | Activity [21]: 0 mm; inhibition (INH) [22]: 26%; MBC [23]: 1 µg/mL; Activity [24]: 0 mm; Activity [25]: inactive; zone of inhibition at 100 µg/mL [26]: 17.2 mm; zone of inhibition at 1000 µg/mL [27]: 30.8 mm; Activity [28]: ~ 80% |
